In ChEMBL document CHEMBL3600319, “Chemical constituents isolated from the Mongolian medicinal plant Sophora alopecuroides L. and their inhibitory effects on LPS-induced nitric oxide production in RAW 264.7 macrophages” (Bioorg Med Chem Lett, 2015):
pIC50: −log10 of the molar value.

What was measured:
RAW264.7 [1] = assay: Potency index, ratio of aminoguanidine IC50 to compound IC50 for mouse RAW264.7 cells; format: functional
RAW264.7 [2] = assay: Antiinflammatory activity in mouse RAW264.7 cells assessed as inhibition of LPS-stimulated nitric oxide production after 24 hrs by Griess method; format: functional, cell-based; details: RAW264.7, 24 h
RAW264.7 [3] = assay: Cytotoxicity against mouse RAW264.7 cells assessed as cell viability at IC50 by MTT assay; format: cell-based

pIC50 (RAW264.7 [2]) | Structure (SMILES) | Ratio IC50 (RAW264.7 [1]) | Activity (RAW264.7 [3])
5.14 | CC(C)=CCc1c2c(c(O)c3c1O[C@H](c1ccc(O)cc1)[C@H]3c1cc(O)cc(O)c1)C(=O)C[C@@H](c1ccc(O)cc1O)O2 | 3 | Non-toxic
4.97 | CC(C)=CCC1Cc2c(cc(O)c3c2O[C@H](c2ccc(O)cc2O)CC3=O)OC1(C)C (stereo partly specified) |  | Non-toxic
< 4.30 | OC[C@H]1O[C@@H](Oc2ccc3c(c2)OC[C@H]2c4cc5c(cc4O[C@@H]32)OCO5)[C@H](O)[C@@H](O)[C@@H]1O [TRIFOLIRHIZIN] |  | Non-toxic
4.58 | C=C(C)C(CC=C(C)C)Cc1c(O)cc(OC)c2c1O[C@H](c1ccc(O)cc1O)CC2=O (stereo partly specified) [KURARINONE] |  | Non-toxic
4.56 | CC1(C)CCC(Cc2c3c(c(O)c4c2O[C@H](c2ccc(O)cc2)[C@H]4c2cc(O)cc(O)c2)C(=O)C[C@@H](c2ccc(O)cc2O)O3)C(C)(C)O1 (stereo partly specified) |  | Non-toxic
< 4.30 | Oc1ccc([C@@H]2c3c(O)cc(O)cc3[C@H]3[C@H](c4ccc(O)cc4)c4c(O)cc(O)cc4[C@@H]23)cc1 [PALLIDOL] |  | Non-toxic
4.58 | CC(C)=CCc1c(O)cc(O)c2c1OC(c1ccc(O)cc1)CC2=O (stereo unspecified) [SOPHORAFLAVANONE B] |  | Non-toxic
4.72 | CC(C)=CCc1c2c(c(O)c3c1O[C@H](c1ccc(O)cc1)[C@H]3c1cc(O)cc(O)c1)C(=O)C[C@@H](c1ccc(O)cc1)O2 |  | Non-toxic
4.79 | C=CC(C)(C)c1c(OC)cc(O)c2c(=O)c3c(CC=C(C)C)c(O)c(O)cc3oc12 [CUDRAXANTHONE D] |  | Non-toxic
4.49 | C=C(C)C(CCC(C)(C)O)Cc1c2c(c(O)c3c1O[C@H](c1ccc(O)cc1)[C@H]3c1cc(O)cc(O)c1)C(=O)C[C@@H](c1ccc(O)cc1O)O2 (stereo partly specified) |  | Non-toxic
4.96 | C=C(C)[C@H](CC=C(C)C)Cc1c(O)cc(O)c2c1O[C@H](c1ccc(O)cc1O)CC2=O [SOPHORAFLAVANONE G] |  | Non-toxic
4.80 | C=C(C)C(CC=C(C)C)Cc1c2c(c(O)c3c1O[C@@H](c1ccc(O)cc1)[C@H]3c1cc(O)cc(O)c1)C(=O)C[C@@H](c1ccc(O)cc1O)O2 (stereo partly specified) |  | Non-toxic

Structure (SMILES) | pIC50 (RAW264.7 [2]) | Ratio IC50 (RAW264.7 [1]) | Activity (RAW264.7 [3])
N=C(N)NN [PIMAGEDINE] | 4.69 |  | 
